Measured values taken from PMC12118597 (Science Advances, 2025).
“And” between values parts separate entries of the source, which are not always exact repeats. Identical values can stand only once. Like-named read-outs stand apart in the source and are kept apart here.

Target: SARS-CoV-2 NSP3 macrodomain (Mac1) (Severe acute respiratory syndrome coronavirus 2, UniProt P0DTD1)
Type: binding
Settings: for 1-BDC: PanDDA background density correction factor; for Total number of conformations: ligand conformations modeled in the crystal structure; for 2*(1-BDC) (%): occupancy estimate from PanDDA; for Refined ligand occupancy (%): refined crystallographic occupancy
[1] = TRUE = crystal structure with ligand obtained
[2] = crystal soak 10 mM, P43 crystal form
[3] = crystal soak 10 mM, DMSO background map
[4] = site of ligand in X-ray crystal structure
[5] = soak concentration 3 mM, DMSO background map
[6] = soak concentration 3 mM, P43 crystals
[7] = crystal soak concentration 20 mM, P43 crystals
[8] = soak concentration 10 mM, DMSO background map
[9] = soak concentration 10 mM, P43 crystals
[10] = ligand-bound crystal structure obtained (TRUE)
[11] = site occupied in X-ray crystal structure
[12] = crystal soak 10 mM, TFA/DMSO background map

| SMILES | Occupancy difference (refined_occupancy - 2*(1-BDC)) | 1-BDC | X-ray crystal structure [1] | PanDDA run, overall: Hit [2] | PanDDA run, overall: Modeled [2] | PanDDA run, DMSO background map: 1-BDC [3] | PanDDA run, DMSO background map: Hit [3] | Total number of conformations | 2*(1-BDC) (%) | Refined ligand occupancy (%) | Binding site [4] | further results |
| --- | --- | --- | --- | --- | --- | --- | --- | --- | --- | --- | --- | --- |
| OCC(Cc1c[nH]c2ccccc12)Nc1ncnc2[nH]ccc12 (stereo not drawn) [AVI-3650] | 0 | 0.15 | TRUE | TRUE | TRUE | 0.15 | TRUE | 2 | 30 | 30 | Adenosine |  |
| OCC(CC1CCOC1)Nc1ncnc2[nH]ccc12 (stereo not drawn) [AVI-3665] | 0 | 0.17 | TRUE | TRUE | TRUE | 0.17 | TRUE | 1 | 34 | 34 | Adenosine |  |
| CC(C)(C)C(O)CC(CO)Nc1ncnc2[nH]ccc12.O=C(O)C(F)(F)F (stereo not drawn) [AVI-3714] |  |  |  |  |  |  |  |  |  |  |  | PanDDA run, overall: Modeling comment (crystal soak 10 mM): TFA only |
| Cc1c(C)n(Cc2ccccc2)c2ncnc(N)c12 [AVI-321] | 0 | 0.08 |  |  |  |  |  | 1 | 16 | 16 |  | X-ray crystal structure (TRUE = ligand-bound crystal structure obtained (PDB code given)): TRUE; Binding site (site of Mac1 occupied in the X-ray crystal structure (Adenosine or Distal)): Adenosine; PanDDA run, DMSO background map: 1-BDC [5]: 0.08; PanDDA run, DMSO background map: Hit [5]: TRUE; PanDDA run, DMSO background map: Modeled [5]: TRUE; PanDDA run, overall: Hit [6]: TRUE; PanDDA run, overall: Modeled [6]: TRUE |
| OC1CCCN(c2ncnc3[nH]ccc23)C1 (stereo not drawn) [AVI-3646] | 0 | 0.22 | TRUE | TRUE | TRUE | 0.22 | TRUE | 1 | 44 | 44 |  | Binding site (site of Mac1 occupied in the X-ray crystal structure): Adenosine |
| COc1ccc(NC(=O)NC2CCCC2)cc1-n1nnnc1C [AVI-311] |  |  |  |  |  |  |  |  |  |  |  | Hit (PanDDA run, DMSO background map) (crystal soak concentration 20 mM, DMSO background map): TRUE; 1-BDC (PanDDA run, DMSO background map) (crystal soak concentration 20 mM, DMSO background map, event 1): 0.12; Hit (PanDDA run, overall) [7]: TRUE; Modeling comment (PanDDA run, overall) [7]: Weak density, not modeled; PanDDA run, DMSO background map: 1-BDC [8]: 0.09; PanDDA run, DMSO background map: Hit [8]: TRUE; PanDDA run, overall: Hit [9]: TRUE; PanDDA run, overall: Modeling comment [9]: Weak density, not modeled |
| OCC(CC1CC1)Nc1ncnc2[nH]ccc12 (stereo not drawn) [AVI-3662] | 0 | 0.14 | TRUE | TRUE | TRUE | 0.14 | TRUE | 1 | 28 | 28 | Adenosine | PanDDA run, overall: Modeling comment [2]: Distal site, weak density, not modeled |
| OCC(O)C1CCCN1c1ncnc2[nH]ccc12 (stereo not drawn) [AVI-3701] | 0 | 0.18 |  | TRUE |  | 0.18 | TRUE | 1 | 36 | 36 |  | X-ray crystal structure [10]: TRUE; Binding site [11]: Adenosine |
| O=C(O)C(F)(F)F.OCC12CC(CN1c1ncnc3[nH]ccc13)C2 [AVI-3681] | -14 | 0.22 |  | TRUE | TRUE | 0.22 | TRUE | 1 | 44 | 30 |  | PanDDA run, overall: Modeling comment [2]: Distal site, weak density, not modeled; X-ray crystal structure [10]: TRUE; Binding site [11]: Adenosine |
| O=C(O)C(F)(F)F.OCC(CC1CCOCC1)Nc1ncnc2[nH]ccc12 (stereo not drawn) [AVI-3676] |  |  |  |  |  |  |  |  |  |  |  | PanDDA run, overall: Modeling comment [2]: TFA only |
| OCC(Cc1ccc(I)cc1)Nc1ncnc2[nH]ccc12 (stereo not drawn) [AVI-3686] | 0 | 0.2 | TRUE | TRUE | TRUE | 0.2 | TRUE | 2 | 40 | 40 | Adenosine |  |
| O=C(O)C(F)(F)F.OC[C@H]1CC2(CN1c1ncnc3[nH]ccc13)OCCO2 [AVI-3702] | 0 | 0.21 |  | TRUE |  | 0.21 | TRUE | 1 | 42 | 42 |  | X-ray crystal structure [10]: TRUE; Binding site [11]: Adenosine |
| OCC(Nc1ncnc2[nH]ccc12)C1CCOC1 (stereo not drawn) [AVI-3679] | 0 | 0.16 | TRUE | TRUE | TRUE | 0.16 | TRUE | 1 | 32 | 32 | Adenosine |  |
| OCC(CC1OCCO1)Nc1ncnc2[nH]ccc12 (stereo not drawn) [AVI-3658] | 0 | 0.2 | TRUE | TRUE | TRUE | 0.2 | TRUE | 1 | 40 | 40 | Adenosine |  |
| OCC(Nc1ncnc2[nH]ccc12)C1CCCC1 (stereo not drawn) [AVI-3649] | 0 | 0.16 | TRUE | TRUE | TRUE | 0.16 | TRUE | 1 | 32 | 32 | Adenosine |  |
| O[C@H]1COC[C@@H]1Nc1ncnc2[nH]ccc12 [AVI-1444, (3R,4S)-4-((7H-pyrrolo[2,3-d]pyrimidin-4-yl)amino)tetrahydrofuran-3-ol] | 0 | 0.08 | TRUE | TRUE |  | 0.08 and 0.11 | TRUE | 1 | 16 | 16 | Adenosine |  |
| O=C(O)C(F)(F)F.OCC(Nc1ncnc2[nH]ccc12)C1CCCO1 (stereo not drawn) [AVI-3645] |  |  |  | TRUE |  | 0.22 | TRUE |  |  |  |  | PanDDA run, overall: Modeling comment [2]: Weak density, not modeled; PanDDA run, TFA/DMSO background map: 1-BDC [12]: 0.12; PanDDA run, TFA/DMSO background map: Hit [12]: TRUE |
